# Source: patent publication US7871635B2, “Use of compound that inactivates protein kinase A in a composition containing a cosmetically acceptable medium for lightening the skin” (Societe d'Exploitation de Produits pour les Industries …, priority 2002, dated 2011)
# Legend:
# [1] = tested on: B16/F1 melanocyte cultures; test: Intracellular melanin content in B16/F1 melanocyte cultures; assay type: cell-based, mouse; conditions: 72 hours; for Intracellular melanin obtained: control 20 ± 4 μg/ml
# Procedure: Mouse melanocytes of the B16/F1 line are inoculated in 96-well culture plates at a density of 1500 cells/well. […] The cells are used at 60% of confluence, i.e. 4 days after inoculation. The MCM medium has the following composition: […] N-Undecylenoylphenylalanine is diluted to 4 mg/ml in decinormal aqueous sodium hydroxide solution. It is tested at 40 μg/ml in the MCM medium. Sodium hydroxide has no effect on the parameters analyzed. […] Given its toxicity, it is not tested at 40 μg/ml. […] Control cultures are incubated, in the absence of product, in the MCM medium. These control cultures are prepared on each culture plate. Each test is performed six times. After incubation for 72 hours, a portion of the cell carpet (n=3) is rinsed with phosphate-buffered saline (PBS; pH=7.4), the composition of which is as follows: NaCl: 8 g/l, Na2HPO4: 1.15 g/l; […] The intracellular melanin is quantified by spectrophotometry at 450 nm. A melanin calibration range is prepared in parallel. The results are expressed as μg/ml of intracellular melanin and as a percentage of inhibition relative to the control group.
# [2] = tested on: Pigmented human epidermides (phototype IV); test: Chromametric measurement of the epidermal pigmentation in reconstructed human epidermides; assay type: cell-based; conditions: for L* (% of the control group) / a* (% of the control group) / b* (% of the control group) / b* / a* / L*: topical, 4 days; for b*: control 7.54 ± 0.00 AU; for a*: control 10.23 ± 0.51 AU; for L*: control 41.38 ± 0.69 AU
# Procedure: Pigmented human epidermides (phototype IV) supplied by Skinethic, of 0.63 cm^2, are reconstructed from a coculture of normal human keratinocytes (skin of the forearm, donor, 2nd passage) and from normal human melanocytes (skin of the forearm, donor of phototype IV, 3rd passage). The keratinocyte/melanocyte ratio is 10:1. The cocultures are inoculated onto inert polycarbonate filters. They are cultured for 10 days in the medium supplied by Skinethic, consisting of MCDB 153 medium supplemented with 5 μg/ml of insulin, 1.5 mM of calcium and growth factors. […] The epidermides are cultured in 6-well plates containing 1 ml of the medium described above. […] The application is performed every day for 4 consecutive days. The incubation medium of the reconstructed epidermides is renewed every day for 4 consecutive days. Control epidermides are treated with a formulation free of active principle. Each test is performed in duplicate. Three days after the final topical application, the color of the epidermides is evaluated using a chromameter (Minolta) by measuring the following parameters L*, a* and b*: • L* is the lightness index. A depigmenting product should increase this parameter; • a* represents the color spectrum from […]. A depigmenting product should reduce this parameter; • b*: represents the color spectrum from […]. A depigmenting product should reduce this parameter. The results are expressed in arbitrary units (AU) of each parameter and as a percentage of the control group.
# endogenous tyrosinase = test: Phosphorylated tyrosinase activity in B16/F1 melanocyte lysates; assay type: cell-based, mouse; conditions: 72 hours; for Tyrosinase activity: control 9.8 ± 0.3 IU/ml
# Procedure: Mouse melanocytes of the B16/F1 line are inoculated in 96-well culture plates at a density of 1500 cells/well. The cells are cultured in a culture medium (MCM medium) at 37° C. under a humid atmosphere containing 5% CO2. The cells are used at 60% of confluence, i.e. 4 days after inoculation.
# The MCM medium has the following composition: DMEM medium (Dulbecco's Modified Eagle's Medium) containing 4.5 g/l of glucose supplemented with L-glutamine (2 mM), penicillin (50 IU/ml), streptomycin (50 μg/ml) and fetal calf serum (10% v/v).
# N-Undecylenoylphenylalanine is diluted to 4 mg/ml in decinormal aqueous sodium hydroxide solution. […]
# The melanocyte cultures are incubated in the presence of the test product or of the reference products for 72 hours at 37° C., under a humid atmosphere containing 5% CO2.
# Control cultures are incubated, in the absence of product, in the MCM medium. These control cultures are prepared on each culture plate.
# Each test is performed six times.
# After incubation for 72 hours, the second portion of the cell carpet (n=3) is rinsed with PBS. The cells are lyzed with Triton™ X100 at a concentration of 0.1% (w/v) for 30 minutes at room temperature. The activity of the endogenous tyrosinase is evaluated by adding 0.1% (w/v) of L-dopa, followed by incubation for 3 hours at 37° C. in the absence of air and light. The dopaquinone formed by the reaction between the tyrosinase and the L-dopa is measured by spectrophotometry at 450 nm. A calibration range of purified tyrosinase is prepared in parallel.
# The results are expressed as IU/ml of tyrosinase activity and as a percentage of inhibition relative to the control group.
# Adenylate cyclase = test: Study of adenylate cyclase activation (ATP to cAMP, radioimmunological assay); assay type: biochemical, rat; conditions: 1 mg/ml; for Enzymatic activity relative to the control (adenylate cyclase): forskolin 10 μM, ATP 0.5 mM, 30 minutes at 30° C.
# Procedure: The influence of N-undecylenoylphenylalanine, kojic acid and arbutin on the conversion of ATP into cAMP was compared via a radioimmunological assay.
# Adenylate cyclase, which converts ATP into cAMP, is extracted from rat brains via the method described in “Salamon Y., Londos C. and Rodbell M.; Anal. Biochem., 58, 1974, 541-548”; it is then activated with 10 μM of forskolin.
# They are each tested separately at a concentration of 1 mg/ml. Sodium hydroxide has no effect on the parameter studied.
# The activated enzyme is incubated, in the presence or absence of these products, and in the presence of 0.5 mM of ATP, for 30 minutes at 30° C.
# Control cultures are incubated, in the absence of product, and in the presence of ATP. Each test is performed in triplicate.
# After incubation for 30 minutes, the amount of cAMP produced is evaluated via a radioimmunological assay performed using a commercial kit; the radioactivity is measured with a scintillation counter (Topcount, Packard), a small radioactivity count reflecting small activation of adenylate cyclase.
# The results given in the table below are the means of the three tests performed for each of the products. They are expressed as a percentage of enzymatic activity relative to the control group and as a percentage of inhibition.
# [3] = Mus musculus, B16-F1, at 40 μg/ml, read-out: Inhibition of intracellular melanin production
# [4] = topical application at 1% and 3% (w/v) in an emulsion
smiles,measurement,setting,value
"Oc1ccc(O)cc1 [Hydroquinone, hydroquinone]",inhibition at 5 µg/mL,"[1]; Mus musculus, B16-F1, at 5 μg/ml, read-out: Inhibition of intracellular melanin production",100%
same,Intracellular melanin obtained,[1]; at 5 μg/ml,0.2 ± 0.1 µg/mL
same,L* (% of the control group),[2]; formulated at 0.1% (w/v),−9%
same,a* (% of the control group),[2]; formulated at 0.1% (w/v),0%
same,b* (% of the control group),[2]; formulated at 0.1% (w/v),+3%
same,b*,[2]; formulated at 0.1% (w/v),7.73 ± 0.03 AU
same,a*,[2]; formulated at 0.1% (w/v),10.19 ± 1.21 AU
same,L*,[2]; formulated at 0.1% (w/v),40.59 ± 2.41 AU
same,"effect on the chromametric parameters L*, a* and b*",[2]; topical application at 0.1% (w/v) in an emulsion,no significant effect
same,Inhibition of tyrosinase activity,endogenous tyrosinase; at 5 μg/ml,69%
same,Tyrosinase activity,endogenous tyrosinase; at 5 μg/ml,3.0 ± 0.3 IU/ml
"C=CCCCCCCCCC(=O)NC(Cc1ccccc1)C(=O)O (centres unmarked) [N-Undecylenoylphenylalanine, N-(ω-undecylenoyl)phenylalanine]",Inhibition of adenylate cyclase activity,Adenylate cyclase,100%
same,Enzymatic activity relative to the control (adenylate cyclase),Adenylate cyclase,−16.0 ± 0.5%
same,Inhibition of adenylate cyclase activity,Adenylate cyclase; listed as N-undecylenoylphenylalanine,total inactivation
same,inhibition at 40 µg/mL,[1]; [3],66%
same,Intracellular melanin obtained,[1]; at 40 μg/ml,7 ± 3 µg/mL
same,reduction of the a* color parameter,[2]; concentration of 3% (w/v),14%
same,reduction of the b* color parameter,[2]; concentration of 3% (w/v),29%
same,L* (% of the control group),[2]; formulated at 1% (w/v),0%
same,a* (% of the control group),[2]; formulated at 1% (w/v),−12%
same,b* (% of the control group),[2]; formulated at 1% (w/v),−21%
same,b*,[2]; formulated at 1% (w/v),5.96 ± 0.42 AU
same,a*,[2]; formulated at 1% (w/v),9.01 ± 1.33 AU
same,L*,[2]; formulated at 1% (w/v),41.34 ± 1.15 AU
same,L* (% of the control group),[2]; formulated at 3% (w/v),+9%
same,a* (% of the control group),[2]; formulated at 3% (w/v),−14%
same,b* (% of the control group),[2]; formulated at 3% (w/v),−29%
same,b*,[2]; formulated at 3% (w/v),5.38 ± 0.06 AU
same,a*,[2]; formulated at 3% (w/v),8.78 ± 0.52 AU
same,L*,[2]; formulated at 3% (w/v),45.228 ± 1.49 AU
same,L* (% of the control group),"[2]; formulated at 3% (w/v), listed as N-undecylenoylphenylalanine",9%
same,inhibition of the b* color parameter,[2]; topical application at 1% (w/v) in an emulsion,15%
same,Inhibition of tyrosinase activity,endogenous tyrosinase; at 40 μg/ml,67%
same,Tyrosinase activity,endogenous tyrosinase; at 40 μg/ml,3.2 ± 0.6 IU/ml
"OC[C@H]1O[C@@H](Oc2ccc(O)cc2)[C@H](O)[C@@H](O)[C@@H]1O [Arbutin, arbutin]",Inhibition of adenylate cyclase activity,Adenylate cyclase,0%
same,Enzymatic activity relative to the control (adenylate cyclase),Adenylate cyclase,109.7 ± 4.6%
same,Inhibition of adenylate cyclase activity,Adenylate cyclase; listed as arbutin,no effect
same,inhibition at 40 µg/mL,[1]; [3],19%
same,Intracellular melanin obtained,[1]; at 40 μg/ml,16 ± 2 µg/mL
same,L* (% of the control group),[2]; formulated at 1% (w/v),+2%
same,a* (% of the control group),[2]; formulated at 1% (w/v),−2%
same,b* (% of the control group),[2]; formulated at 1% (w/v),+1%
same,b*,[2]; formulated at 1% (w/v),7.64 ± 0.19 AU
same,a*,[2]; formulated at 1% (w/v),10.02 ± 0.13 AU
same,L*,[2]; formulated at 1% (w/v),40.48 ± 0.85 AU
same,L* (% of the control group),[2]; formulated at 3% (w/v),+1%
same,a* (% of the control group),[2]; formulated at 3% (w/v),−4%
same,b* (% of the control group),[2]; formulated at 3% (w/v),+3%
same,b*,[2]; formulated at 3% (w/v),7.73 ± 0.34 AU
same,a*,[2]; formulated at 3% (w/v),9.86 ± 0.18 AU
same,L*,[2]; formulated at 3% (w/v),41.13 ± 0.54 AU
same,"effect on the chromametric parameters L*, a* and b*",[2]; [4],no significant effect
same,Inhibition of tyrosinase activity,endogenous tyrosinase; at 40 μg/ml,23%
same,Tyrosinase activity,endogenous tyrosinase; at 40 μg/ml,7.6 ± 1.1 IU/ml
"O=c1cc(CO)occ1O [Kojic acid, kojic acid]",Inhibition of adenylate cyclase activity,Adenylate cyclase,55%
same,Inhibition of adenylate cyclase activity,Adenylate cyclase; listed as kojic acid,moderate effect
same,inhibition at 40 µg/mL,[1]; [3],17%
same,Intracellular melanin obtained,[1]; at 40 μg/ml,17 ± 1 µg/mL
same,L* (% of the control group),[2]; formulated at 1% (w/v),+3%
same,a* (% of the control group),[2]; formulated at 1% (w/v),+7%
same,b* (% of the control group),[2]; formulated at 1% (w/v),+3%
same,b*,[2]; formulated at 1% (w/v),7.67 ± 0.03 AU
same,a*,[2]; formulated at 1% (w/v),10.90 ± 0.51 AU
same,L*,[2]; formulated at 1% (w/v),40.11 ± 1.41 AU
same,L* (% of the control group),[2]; formulated at 3% (w/v),0%
same,a* (% of the control group),[2]; formulated at 3% (w/v),−8%
same,b* (% of the control group),[2]; formulated at 3% (w/v),−5%
same,b*,[2]; formulated at 3% (w/v),7.13 ± 0.09 AU
same,a*,[2]; formulated at 3% (w/v),9.36 ± 1.02 AU
same,L*,[2]; formulated at 3% (w/v),41.69 ± 0.65 AU
same,"effect on the chromametric parameters L*, a* and b*",[2]; [4],no significant effect
